Here are results for three compounds from patent US20100212218A1, “5-(SUBSTITUTED METHYL) 2-METHYLFURAN” (FURANIX TECHNOLOGIES B.V., priority 2007, published 2010).

The data set in a line: Fuel solubility: miscibility in blends with commercial diesel. The data set is classed as physicochemical. An excerpt:
Fuel solubility is a primary concern for diesel fuel applications. Not all highly polar oxygenates have good solubility in the current commercial diesel fuels.

Where [1] appears, read: all blend ratios with commercial diesel.

Molecules are shown by their SMILES.

On to `CCOCc1ccc(C=O)o1` [EMF, 5-(ethoxymethyl)furfural], for which the “miscibility with commercial diesel” value is recorded as “completely miscible” (5 vol % blend with commercial diesel), “phase separation occurs” (25 vol % blend with commercial diesel) and “phase separation occurs” (40 vol % blend with commercial diesel).

As for `Cc1ccc(COC(C)(C)C)o1` [5-(tertbutoxymethyl)-2-methylfuran], under setting [1], the “miscibility with commercial diesel” value is recorded as “miscible in all blend ratio's”. For the compound `CCOCc1ccc(C)o1` [5-(ethoxymethyl)-2-methylfuran], under setting [1], the “miscibility with commercial diesel” value is given as “miscible in all blend ratio's”.
